According to US12091398B2, “PD-L1 antagonist compound” (ADLAI NORTYE BIOPHARMA CO., LTD., priority 2019, dated 2024):

Tested on: PD-1/PD-L1 interaction
Experiment: Cell based PD-1/PD-L1 NFAT reporter assay
Parameters: species or system human
Conditions: Homo sapiens, 6 h, PD-1/NFAT-Reporter-Jurkat cells co-cultured with TCR activator/PD-L1-CHO cells; 6 hour incubation; luciferase; calibrated to Atezolizumab 10 nM; read-out: Absolute EC50
Method: Cell Based PD-1/PD-L1 NFAT Reporter Assay
Compounds of the present patent were tested in a cell based PD-1/PD-L1 NFAT reporter assay.
The cell-based luciferase reporter assay is used for monitoring the PD-1/PD-L1 inhibitor by characterizing the biological activity of PD-1: PD-L1 interactions in cellular context. PD-1/NFAT-Reporter-Jurkat cells stably over-expressing human PD-1 with NFAT reporter are used as effector cells. TCR activator/PD-L1—CHO cells over-expressing PD-L1 and an engineered T cell receptor (TCR) activator are used as target cells. When these two cells are co-cultivated, TCR complexes on effector cells are activated by TCR activator on target cells, resulting in expression of the NFAT luciferase reporter. However, PD1 and PD-L1 (or PD-L2) ligation prevents TCR activation and suppresses the NFAT-responsive luciferase activity. This inhibition can be specifically reversed by anti-PD1 or anti-PD-L1 inhibitors. PD1/PD-L1 inhibitors block PD1:PD-L1 interaction and promote TCR activation, resulting in reactivation of the NFAT responsive luciferase reporter.
PD-1/NFAT—Reporter—Jurkat cell (Cat: 60535) and TCR activator/PD-L1—CHO cell (Cat: 60536) were purchased from BPS Bioscience. Anti-human PD-L1 antibody (Atezolizumab, Cat: A2004) was purchased from Selleck; luciferase reporter gene expression detection kit (ONE-Glo™ Luciferase Assay System, Cat: E6120) was purchased from Promega; multifunction plate reader (SpectraMax i3x) was purchased from Molecular Devices.
PD-1/NFAT—Reporter—Jurkat cells and TCR activator/PD-L1—CHO cells were cultured in recommended media respectively.
Harvest TCR activator/PD-L1-CHO cells from culture and seed cells at a density of 35,000 cells per well into 96-well microplate in 100 µl of growth medium. Incubate cells at 37° C. in a CO2 incubator overnight. Next day, discard the culture media, add diluted compound in assay medium for 30 min. Anti-PD-L1 antibody (Atezolizumab, final concentration 10 nM) and 0.1% DMSO were the positive and negative control, respectively. Harvest the PD-1/NFAT-reporter-Jurkat cells by centrifugation and add to the wells. After 6 hour incubation, perform luciferase assay using the ONE-Glo™ Luciferase Assay System, following the manufacturer's assay protocol.
Anti-PD-L1 antibody (Atezolizumnab, 10 nM) was used as positive control to calibrate the inhibition rate using the following equation: % inhibition=(Sample luminescence/Average vehicle group luminescence−1)/(Average PD-L1 group luminescence/Average vehicle group luminescence−1)×100%.

Compound	EC50
COc1cc(OCc2cccc(-c3cccc4c3cnn4Cc3cc(OCc4cncc(C#N)c4)c(CN4CCC(C)(C(=O)O)C4)cc3Cl)c2C)c(Cl)cc1CN1CCC(C)(C(=O)O)C1 (stereo not drawn) [Compound 70, 1-(4-((3-(1-(4-((3-carboxy-3-methylpyrrolidin-1-yl)methyl)-2-chloro-5-((5-cyanopyridin-3-yl)methoxy)benzyl)-1H-indazol-4-yl)-2-methylbenzyl)oxy)-5-chloro-2-methoxybenzyl)-3-methylpyrrolidine-3-carboxylic acid]	5850 nM
Cc1c(COc2cc(OCc3cncc(C#N)c3)c(CNCCO)cc2Cl)cccc1-c1cccc2c1cnn2Cc1cc(OCc2cncc(C#N)c2)c(CNCCO)cc1Cl [Compound 71]	134 nM
COc1cc(OCc2cccc(-c3cccc4c3cnn4Cc3cc(OCc4cncc(C#N)c4)c(CN[C@@H](CO)C(=O)O)cc3Cl)c2C)c(Cl)cc1CN [Compound 74]	2700 nM
Cc1c(COc2cc(OCc3cncc(C#N)c3)c(CN)cc2Cl)cccc1-c1cccc2c1cnn2Cc1cc(OCc2cncc(C#N)c2)c(CN)cc1Cl [Compound 75]	2830 nM
N#Cc1cncc(COc2cc(Cn3ncc4c(-c5cccc(-c6ccc(CNC[C@@H]7CCC(=O)N7)cc6)c5Cl)cccc43)c(Cl)cc2CN[C@@H](CO)C(=O)O)c1 [Compound 77]	28 nM
N#Cc1cncc(COc2cc(OCc3cccc(-c4cccc5c4cnn5CCCCN4CC[C@@H](O)C4)c3Br)c(Cl)cc2CNCCO)c1 [Compound 80]	318 nM
C[C@H](CO)NCc1cc(Cl)c(OCc2cccc(-c3cccc4c3cnn4CCCCN3CC[C@@H](O)C3)c2Br)cc1OCc1cncc(C#N)c1 [Compound 81]	221 nM
CC1(C(=O)O)CCN(Cc2cc(Cl)c(OCc3cccc(-c4cccc5c4cnn5CCCCN4CC[C@@H](O)C4)c3Br)cc2OCc2cncc(C#N)c2)C1 (stereo partly drawn) [Compound 84]	1750 nM
N#Cc1cncc(COc2cc(OCc3cccc(-c4cccc5c4cnn5CCCCN4CC[C@@H](O)C4)c3Br)c(Cl)cc2CN2CCCC2)c1 [Compound 85]	> 370 nM
N#Cc1cncc(COc2cc(OCc3cccc(-c4cccc5c4cnn5CCCCNC[C@@H]4CCC(=O)N4)c3Br)c(Cl)cc2CN[C@@H](CO)C(=O)O)c1 [Compound 86]	214 nM
COc1cc(Cn2ccc3c(-c4cccc(-c5ccc(CNC[C@@H]6CCC(=O)N6)cc5)c4Cl)cccc32)c(Cl)cc1CN[C@@H](CO)C(=O)O [Compound 91, (5-chloro-4-((4-(2-chloro-4′-(((((S)-5-oxopyrrolidin-2-yl)methyl)amino)methyl)-[1,1′-biphenyl]-3-yl)-1H-indol-1-yl)methyl)-2-methoxybenzyl)-L-serine]	518 nM
COc1cc(Cn2cnc3c(-c4cccc(-c5ccc(CNC[C@@H]6CCC(=O)N6)cc5)c4Cl)cccc32)c(Cl)cc1CN[C@@H](CO)C(=O)O [Compound 93, (5-chloro-4-((4-(2-chloro-4′-(((((S)-5-oxopyrrolidin-2-yl)methyl)amino)methyl)-[1,1′-biphenyl]-3-yl)-1H-benzo[d]imidazol-1-yl)methyl)-2-methoxybenzyl)-L-serine]	2130 nM
CN1CCC2(CC1)CCN(Cc1cccc(-c3cccc4c3cnn4Cc3cc(OCc4cncc(C#N)c4)c(CN[C@@H](CO)C(=O)O)cc3Cl)c1Cl)CC2 [Compound 94, (5-chloro-4-((4-(2-chloro-3-((9-methyl-3,9-diazaspiro[5.5]undecan-3-yl)methyl)phenyl)-1H-indazol-1-yl)methyl)-2-((5-cyanopyridin-3-yl)methoxy)benzyl)-L-serine]	> 10000 nM
CN1CCC2(CC1)CCN(C(=O)c1cccc(-c3cccc4c3cnn4Cc3cc(OCc4cncc(C#N)c4)c(CN[C@@H](CO)C(=O)O)cc3Cl)c1Cl)CC2 [Compound 95, (5-chloro-4-((4-(2-chloro-3-(9-methyl-3,9-diazaspiro[5.5]undecane-3-carbonyl)phenyl)-1H-indazol-1-yl)methyl)-2-((5-cyanopyridin-3-yl)methoxy)benzyl)-L-serine]	> 10000 nM

Continued, values first:

EC50	Compound
> 1110 nM	COc1cc(OCc2cccc(-c3cccc4c3cnn4Cc3cc(OCc4cncc(C#N)c4)c(CN)cc3Cl)c2C)c(Cl)cc1CN [Compound 72]
448 nM	COc1cc(OCc2cccc(-c3cccc4c3cnn4Cc3cc(OCc4cncc(C#N)c4)c(CN)cc3Cl)c2C)c(Cl)cc1CN[C@@H](CO)C(=O)O [Compound 73]
34 nM	COc1nc(-c2cccc(-c3cccc4c3cnn4Cc3cc(OCc4cncc(C#N)c4)c(CN[C@@H](CO)C(=O)O)cc3Cl)c2Cl)ccc1CNC[C@@H]1CCC(=O)N1 [Compound 76]
1600 nM	COc1cc(OCc2cccc(-c3cccc4c3c(C)nn4Cc3cc(OCc4cncc(C#N)c4)c(CN[C@@H](CO)C(=O)O)cc3Cl)c2C)c(Cl)cc1CN[C@@H](CO)C(=O)O [Compound 78]
> 370 nM	N#Cc1cncc(COc2cc(OCc3cccc(-c4cccc5c4cnn5CCCCN4CC[C@@H](O)C4)c3Br)c(Cl)cc2CN2CC[C@H](O)C2)c1 [Compound 79]
339 nM	N#Cc1cncc(COc2cc(OCc3cccc(-c4cccc5c4cnn5CCCCN4CC[C@@H](O)C4)c3Br)c(Cl)cc2CN2CC[C@@H](O)C2)c1 [Compound 82]
232 nM	N#Cc1cncc(COc2cc(OCc3cccc(-c4cccc5c4cnn5CCCCN4CC[C@@H](O)C4)c3Br)c(Cl)cc2CNC[C@@H]2CCC(=O)N2)c1 [Compound 83]
98 nM	N#Cc1cncc(COc2cc(OCc3cccc(-c4cccc5c4cnn5CCCNC[C@@H]4CCC(=O)N4)c3Br)c(Cl)cc2CN[C@@H](CO)C(=O)O)c1 [Compound 87, (4-((2-bromo-3-(1-(3-((((S)-5-oxopyrrolidin-2-yl)methyl)amino)propyl)-1H-indazol-4-yl)benzyl)oxy)-5-chloro-2-((5-cyanopyridin-3-yl)methoxy)benzyl)-L-serine]
1030 nM	Cc1c(OCCCN2CC[C@@H](O)C2)cccc1-c1ccnc2c1cnn2Cc1cc(OCc2cncc(C#N)c2)c(CN[C@@H](CO)C(=O)O)cc1Cl [Compound 88, (5-chloro-2-((5-cyanopyridin-3-yl)methoxy)-4-((4-(3-(3-((R)-3-hydroxypyrrolidin-1-yl)propoxy)-2-methylphenyl)-1H-pyrazolo[3,4-b]pyridin-1-yl)methyl)benzyl)-L-serine]
5450 nM	Cc1c(OCCCN2CC[C@@H](O)C2)cccc1-c1cncc2c1cnn2Cc1cc(OCc2cncc(C#N)c2)c(CN[C@@H](CO)C(=O)O)cc1Cl [Compound 89, (5-chloro-2-((5-cyanopyridin-3-yl)methoxy)-4-((4-(3-(3-((R)-3-hydroxypyrrolidin-1-yl)propoxy)-2-methylphenyl)-1H-pyrazolo[3,4-c]pyridin-1-yl)methyl)benzyl)-L-serine]
416 nM	COc1cc(Cn2nnc3c(-c4cccc(-c5ccc(CNC[C@@H]6CCC(=O)N6)cc5)c4Cl)cccc32)c(Cl)cc1CN[C@@H](CO)C(=O)O [Compound 92, (5-chloro-4-((4-(2-chloro-4′-(((((S)-5-oxopyrrolidin-2-yl)methyl)amino)methyl)-[1,1′-biphenyl]-3-yl)-1H-benzo[d][1,2,3]triazol-1-yl)methyl)-2-methoxybenzyl)-L-serine]

Same assay, conditions: Homo sapiens; PD-1/NFAT-Reporter-Jurkat cells co-cultured with TCR activator/PD-L1-CHO cells; 6 hour incubation; luciferase; calibrated to Atezolizumab 10 nM; read-out: Absolute EC50

Compound	EC50
N#Cc1cncc(COc2cc(Cn3ncc4c(-c5cccc(OCc6ccc(CN7CC[C@@H](O)C7)cc6)c5Cl)cccc43)c(Cl)cc2CN[C@@H](CO)C(=O)O)c1 [Compound 90, (5-chloro-4-((4-(2-chloro-3-((4-(((R)-3-hydroxypyrrolidin-1-yl)methyl)benzyl)oxy)phenyl)-1H-indazol-1-yl)methyl)-2-((5-cyanopyridin-3-yl)methoxy)benzyl)-L-serine]	1060 nM
CN1CCC2(CC1)CCN(c1cccc(-c3cccc4c3cnn4Cc3cc(OCc4cncc(C#N)c4)c(CN[C@@H](CO)C(=O)O)cc3Cl)c1Cl)CC2 [Compound 96, (5-chloro-4-((4-(2-chloro-3-(9-methyl-3,9-diazaspiro[5.5]undecan-3-yl)phenyl)-1H-indazol-1-yl)methyl)-2-((5-cyanopyridin-3-yl)methoxy)benzyl)-L-serine]	2450 nM
